How the values were obtained:
Type in all cases: functional, cell-based
MCF7 = assay: Cytotoxicity against human MCF7 cells assessed as inhibition of cell growth after 3 days by MTT assay; conditions: MCF7, 72 h
KB = assay: Cytotoxicity against human KB cells assessed as inhibition of cell growth after 3 days by MTT assay; conditions: 72 h
[1] = Cytotoxicity against human Lu cells assessed as inhibition of cell growth after 3 days by MTT assay; conditions: 72 h
HepG2 = assay: Cytotoxicity against human HepG2 cells assessed as inhibition of cell growth after 3 days by MTT assay; conditions: HepG2, 72 h

SMILES	IC50 (MCF7)	IC50 (KB)	IC50 [1]	IC50 (HepG2)
Cc1c2ccncc2c(C)c2c1[nH]c1ccccc12 [ELLIPTECINE]	2.15 nM	1.26 nM	1.82 nM	1.26 nM
CCOC(=O)/C(C)=C/[C@@H](NC(=O)[C@@H](NC(=O)/C(=C/c1ccc(OC)cc1)NC(C)=O)C(C)(C)C)C(C)C	> 269 nM	> 269 nM	> 269 nM	> 269 nM
CC(=O)N/C(=C\c1ccsc1)C(=O)N[C@H](C(=O)N[C@H](/C=C(\C)C(=O)O)C(C)C)C(C)(C)C	> 269 nM	> 269 nM	> 269 nM	> 269 nM
CC(=O)N/C(=C\c1ccco1)C(=O)N[C@H](C(=O)N(C)[C@H](/C=C(\C)C(=O)O)C(C)C)C(C)(C)C	> 269 nM	188 nM	> 269 nM	> 269 nM
CCOC(=O)/C(C)=C/[C@H](C(C)C)N(C)C(=O)[C@@H](NC(=O)/C(=C/c1ccco1)NC(C)=O)C(C)(C)C	178 nM	3.5 nM	231 nM	31.4 nM
COc1cccc(/C=C(\NC(C)=O)C(=O)N[C@H](C(=O)N[C@H](/C=C(\C)C(=O)O)C(C)C)C(C)(C)C)c1	> 269 nM	> 269 nM	> 269 nM	> 269 nM
CC(=O)N/C(=C\c1ccc2ccccc2c1)C(=O)N[C@H](C(=O)N(C)[C@H](/C=C(\C)C(=O)O)C(C)C)C(C)(C)C	> 269 nM	69.7 nM	> 269 nM	13 nM
CCOC(=O)/C(C)=C/[C@@H](NC(=O)[C@@H](NC(=O)/C(=C/c1cccc(OC)c1)NC(C)=O)C(C)(C)C)C(C)C	62 nM	77.4 nM	228 nM	47.7 nM
CCOC(=O)/C(C)=C/[C@H](C(C)C)N(C)C(=O)[C@@H](NC(=O)/C(=C/c1ccc2ccccc2c1)NC(C)=O)C(C)(C)C	67.9 nM	23 nM	> 269 nM	23.1 nM
CC(=O)N/C(=C\c1ccc(Br)cc1)C(=O)N[C@H](C(=O)N(C)[C@H](/C=C(\C)C(=O)O)C(C)C)C(C)(C)C	> 269 nM	> 269 nM	> 269 nM	> 269 nM
CCOC(=O)/C(C)=C/[C@@H](NC(=O)[C@@H](NC(=O)/C(=C/c1cccc(Br)c1)NC(C)=O)C(C)(C)C)C(C)C	> 269 nM	> 269 nM	> 269 nM	> 269 nM
CCOC(=O)/C(C)=C/[C@H](C(C)C)N(C)C(=O)[C@@H](NC(=O)/C(=C/c1ccoc1)NC(C)=O)C(C)(C)C	113 nM	24.1 nM	158 nM	16.3 nM
COc1cccc(/C=C(\NC(C)=O)C(=O)N[C@H](C(=O)N(C)[C@H](/C=C(\C)C(=O)O)C(C)C)C(C)(C)C)c1	> 269 nM	> 269 nM	> 269 nM	> 269 nM
COc1ccc(/C=C(\NC(C)=O)C(=O)N[C@H](C(=O)N(C)[C@H](/C=C(\C)C(=O)O)C(C)C)C(C)(C)C)cc1	> 269 nM	15.8 nM	> 269 nM	63.8 nM
CC(=O)N/C(=C\c1ccc(Br)cc1)C(=O)N[C@H](C(=O)N[C@H](/C=C(\C)C(=O)O)C(C)C)C(C)(C)C	> 269 nM	> 269 nM	> 269 nM	> 269 nM
CCOC(=O)/C(C)=C/[C@@H](NC(=O)[C@@H](NC(=O)/C(=C/c1ccc2ccccc2c1)NC(C)=O)C(C)(C)C)C(C)C	42.3 nM	30.8 nM	> 269 nM	39.7 nM

SMILES	IC50 (MCF7)	IC50 (KB)	IC50 [1]	IC50 (HepG2)
CC(=O)N/C(=C\c1ccc2ccccc2c1)C(=O)N[C@H](C(=O)N[C@H](/C=C(\C)C(=O)O)C(C)C)C(C)(C)C	> 269 nM	63 nM	> 269 nM	33.4 nM
CCOC(=O)/C(C)=C/[C@@H](NC(=O)[C@@H](NC(=O)/C(=C/c1ccsc1)NC(C)=O)C(C)(C)C)C(C)C	203 nM	107 nM	> 269 nM	57.6 nM
CCOC(=O)/C(C)=C/[C@H](C(C)C)N(C)C(=O)[C@@H](NC(=O)/C(=C/c1ccc(Br)cc1)NC(C)=O)C(C)(C)C	> 269 nM	49 nM	> 269 nM	> 269 nM
CC(=O)N/C(=C\c1ccoc1)C(=O)N[C@H](C(=O)N[C@H](/C=C(\C)C(=O)O)C(C)C)C(C)(C)C	> 269 nM	155 nM	> 269 nM	> 269 nM
CC(=O)O[C@H]1C(=O)[C@@]2(C)[C@H]([C@H](OC(=O)c3ccccc3)[C@]3(O)C[C@H](OC(=O)[C@H](O)[C@@H](NC(=O)c4ccccc4)c4ccccc4)C(C)=C1C3(C)C)[C@]1(OC(C)=O)CO[C@@H]1C[C@@H]2O [PACLITAXEL]	–	3.9 nM	–	0.19 nM
COc1ccc(/C=C(\NC(C)=O)C(=O)N[C@H](C(=O)N[C@H](/C=C(\C)C(=O)O)C(C)C)C(C)(C)C)cc1	> 269 nM	> 269 nM	> 269 nM	> 269 nM
CCOC(=O)/C(C)=C/[C@H](C(C)C)N(C)C(=O)[C@@H](NC(=O)/C(=C/c1ccsc1)NC(C)=O)C(C)(C)C	> 269 nM	202 nM	> 269 nM	15 nM
CC(=O)N/C(=C\c1ccsc1)C(=O)N[C@H](C(=O)N(C)[C@H](/C=C(\C)C(=O)O)C(C)C)C(C)(C)C	> 269 nM	234 nM	> 269 nM	63.2 nM
CC(=O)N/C(=C\c1ccoc1)C(=O)N[C@H](C(=O)N(C)[C@H](/C=C(\C)C(=O)O)C(C)C)C(C)(C)C	> 269 nM	> 269 nM	> 269 nM	149 nM
CCOC(=O)/C(C)=C/[C@@H](NC(=O)[C@@H](NC(=O)/C(=C/c1ccoc1)NC(C)=O)C(C)(C)C)C(C)C	> 269 nM	86.2 nM	> 269 nM	67.3 nM
CC(=O)N/C(=C\c1ccco1)C(=O)N[C@H](C(=O)N[C@H](/C=C(\C)C(=O)O)C(C)C)C(C)(C)C	> 269 nM	8.2 nM	> 269 nM	17.8 nM
CCOC(=O)/C(C)=C/[C@H](C(C)C)N(C)C(=O)[C@@H](NC(=O)/C(=C/c1ccc(OC)cc1)NC(C)=O)C(C)(C)C	215 nM	3.7 nM	> 269 nM	3.7 nM
CC(=O)N/C(=C\c1cccc(Br)c1)C(=O)N[C@H](C(=O)N[C@H](/C=C(\C)C(=O)O)C(C)C)C(C)(C)C	> 269 nM	> 269 nM	> 269 nM	> 269 nM
CCOC(=O)/C(C)=C/[C@@H](NC(=O)[C@@H](NC(=O)/C(=C/c1ccco1)NC(C)=O)C(C)(C)C)C(C)C	> 269 nM	160 nM	> 269 nM	214 nM
CCOC(=O)/C(C)=C/[C@@H](NC(=O)[C@@H](NC(=O)/C(=C/c1ccc(Br)cc1)NC(C)=O)C(C)(C)C)C(C)C	> 269 nM	> 269 nM	> 269 nM	> 269 nM
CCOC(=O)/C(C)=C/[C@H](C(C)C)N(C)C(=O)[C@@H](NC(=O)/C(=C/c1cccc(OC)c1)NC(C)=O)C(C)(C)C	> 269 nM	> 269 nM	> 269 nM	> 269 nM

Reference: ChEMBL document CHEMBL3259736, “Synthesis of new simplified hemiasterlin derivatives with α,β-unsaturated carbonyl moiety” (Bioorg Med Chem Lett, 2014)
